According to patent publication US8372342B2, “Apparatus for monitoring thrombus formation and method of monitoring thrombus formation” (Fujimori Kogyo Co., Ltd., priority 2005, dated 2013):

Key:
blood coagulation [1] = test: Time taken for coagulation of blood in Eppendorf tubes (Reference Experiment 1); type: cell-based
Description: The blood immediately after blood sampling, the blood prepared by adding a volume of one tenth of 300 μg/ml of a maize-derived trypsin inhibitor to the first blood, and the blood prepared by adding a thrombin aptamer that recognizes exosite I to the second blood so as to be 5 μM in concentration were provided. Then, for these three kinds of the blood, the time taken for coagulation were measured in Eppendorf tubes (made of polypropylene). The sample was reversed up side down every one minute and the flowability thereof was confirmed.
Further, when 5 μM of a thrombin aptamer that recognizes exosite I and 5 μM of a thrombin aptamer that recognizes exosite II were used in combination, blood coagulation was not confirmed even after 3 hours even in the case of the blood free of the trypsin inhibitor.

[2] = system: plasma coagulation (APTT); test: APTT measurement on plasma (Reference Experiment 2); type: biochemical; details: plasma added with 500-μM exosite I recognizing thrombin aptamer
Description: The measurement of APTT was carried out on […] of plasma with respect to each of sample A added with […] of physiological saline solution, sample B added with […] of 500-μM exosite I recognizing thrombin aptamer, and sample C added with 10 μl of a solution containing 500-μM exosite I recognizing thrombin aptamer and 1500-μM exosite I recognizing thrombin aptamer antisense DNA. The sample A was 44 seconds, the sample B was 2 minutes or more, and the sample C was 45 seconds.

[3] = system: thrombus formation in citrate-treated blood; test: Thrombus formation monitoring in a glass tube chamber with collagen-immersed silk as thrombus inducing material; type: cell-based; details: 0.1 mg/ml added to solution A; flown for 15 minutes
Description: After flowing the solution A in the syringe 20 at 3 ml/min and the solution B in the syringe 21 at 0.3 ml/min for 15 minutes, the thrombus formation chamber 10 was detached and the inside thereof was then washed with a physiological saline solution.

blood coagulation [4] = test: Thromboelastogram waveform of coagulation (Reference Experiment 3); type: cell-based; details: aptamers to exosite I and II; stored at room temperature for 15 minutes
Description: FIG. 11(A) is a result obtained by analyzing a thromboelastogram waveform of coagulation by adding 10 μM of each of aptamers for exosite I and exosite II to the blood, and after storing the blood at room temperature for 15 minutes, adding 40 μM of each of antisense DNAs of both aptamer. FIG. 11(B) illustrates the thromboelastogram waveform of the blood just after blood sampling.
FIG. 11(A) is an analysis of a waveform of coagulation with thromboelastogram by storing the blood added with […] of aptamers to exosite I and exosite II at room temperature for 15 minutes, and then by adding 40 μM of antisense DNAs of both aptamers. FIG. 11(B) is a thromboelastogram waveform of the blood just after blood sampling.

[5] = system: thrombus formation in citrate-treated blood; test: Thrombus formation monitoring in the FIG. 1 flow apparatus, collagen-coated constriction portion, citrate-treated blood released with CaCl2; type: cell-based; details: 1 mg/ml added to solution A
Description: An apparatus for monitoring thrombus formation illustrated in FIG. 1 is used to fill a syringe 20 with 50 ml of a citrate-treated blood (solution A) in which 9 parts by volume of the blood immediately after the blood sample is mixed with 1 part by volume of 3.2% sodium citrate, and to fill a syringe 21 with 10 ml of 0.2M CaCl2 (solution B). The syringes 20 and 21 are connected to transparent nylon tubes (inlet tube 11 and drug tube 12) with an inner diameter of 3 mm. Both tubes are joined together at a T-shaped joint (cheese) and then connected to a polycarbonate thrombus formation chamber 10 of 3 mm in inner diameter and 1 cm in length through a single nylon tube (inlet tube 11) of 3 mm in inner diameter and 3 cm in length. The thrombus formation chamber 10 itself is constructed as a removable cassette. The joint portion between the cassette and the nylon tube (inlet tube 11) is made liquid-tight via an O-ring made of silicon rubber. A glass member is fixed on the inside of the cassette by an epoxy-based adhesive, thereby forming a constriction portion 14. The constriction portion 14 is designed so that the most narrowed site of the constriction portion 14 may have an inner diameter (the maximum gap between the constriction portion 14 and the inner wall) of 1.5 mm. In addition, the thrombus formation chamber 10 is connected liquid-tight with a tube as a discharge tube 13 having the same diameter and formed of the same material through an O-ring made of silicon rubber, and thus a thrombus monitoring apparatus 1 as illustrated in FIG. 1 is manufactured. Note that flange-type pressure gauges 40 and 41 are mounted on parts of the inlet tube 11 and the discharge tube 13 near the thrombus formation chamber 10 via joints (cheeses), respectively. […]
An apparatus for monitoring thrombus formation 1 is prepared and thrombus formation is then monitored in a manner similar to Example 1, except that the solution A of Example 1 is further added with an unfractionated heparin (prepared from pig mucous) at a concentration of 1 mg/ml.

[6] = system: thrombus formation in whole blood; test: Microchip pressure measurement, collagen/tissue thromboplastin chamber, blood anticoagulated with trypsin inhibitor and thrombin aptamers, released with antisense DNAs (Example 17 system); type: cell-based
Description: A microchip 300, where the substrate and the cover of the microchip shown in FIG. 9(B) and FIG. 9(C), respectively, made of the same materials as those of Example 7 were pressure-bonded, was used. The microchip 300 comprises a blood coagulation inhibitor inlet tube 322 and a discharge tube 313 which were connected to the substrate 100 as in the case with the discharge tube of Example 7. However, the grooves of the microchip 300 of FIG. 9 are all formed of 200 μm in depth. […] A solution was prepared such that 1 vial of the Sysmex Corporation PT reagent (tissue thromboplastin) was dissolved in 1 ml of purified water and then dialyzed in purified water, the dialyzed product in purified water was mixed with collagen type I (manufactured by Nitta Gelatin Inc.) at a ratio of 1:1. After that, the applied portion was dried at 4° C. in air and thrombus formation chamber 311 was covered, which was used as a thrombus inducing material 315. The blood was collected after the addition of an anticoagulation treatment agent such that the final concentrations of the respective components in the syringe were 25 μg/ml for maize-derived trypsin inhibitor, 10 μM for exosite I thrombin aptamer, 10 μM for exosite II thrombin aptarner (5′-[…]-3′: SEQ D NO. 3). Immediately before monitoring, the blood thus collected was added with antisense DNAs with respect to thrombin aptamers of exosite I and exosite II so that each of them would reach to a concentration of 40 μM. Then, a syringe (1 ml syringe, manufactured by Terumo Corporation) was filled with the blood and provided as the sample syringe 320 shown in FIG. 9. The My Flow (manufactured by Arbiotec Co., Ltd), which is a micro-feeding pump capable of monitoring the inner pressure of a liquid-feeding pump, was connected to a pressure inlet tube 317 shown in FIG. 9. Mineral oil was pressed into the microchip 300 from the top of the syringe 320 and the blood was pushed out into the microchip 300 at a flow rate of 50 μl/min, while the pressure exerted on the sample syringe 320 was monitored. […]

[7] = system: thrombus formation in whole blood; test: Microchip pressure measurement, blood anticoagulated with citric acid and maize-derived trypsin inhibitor, released with calcium chloride (Example 20 system); type: cell-based; details: 2 μg/ml
Description: The blood sampling was carried out with the addition of 3.2% citric acid so that the ratio of citric acid and the blood be 1:9. Further, the blood was added with a maize-derived trypsin inhibitor at a concentration of 25 μg/ml to carry out an anticoagulation reaction. Immediately after adding calcium chloride to the anticoagulated blood so that it should reach 15 mM with respect to the anticoagulated blood at the time of monitoring thrombus formation, the blood was added to a syringe (1-ml syringe, manufactured by Terumo Corporation), followed by inflowing the blood into the same microchip as that of Example 17 at a flow rate of 40 μl/min. Subsequently, a change in pressure was measured using the same system as that of Example 17. The pressure began to rise 15 minutes after starting the pressure measurement and it rose up to about 60 kPa.
The blood sampling was carried out with the addition of an anticoagulation treatment agent in manner similar to Example 20. Subsequently, the same procedure as that of Example 20 was carried out, except that ReoPro (LILLY Co., Ltd.) was added at a concentration of 2 μg/ml. The measurement of pressure was then performed. The pressure began to rise 20 minutes after starting the pressure measurement and it rose up to about 15 kPa after 25 minutes (FIG. 15).

Which coagulation time (blood coagulation [1]; 5 μM exosite I thrombin aptamer added to the blood already containing trypsin inhibitor) does the source give for “5′-GGTTGGTGTGGTTGG-3′ (listed as DNA, chemistry not given here) [thrombin aptamer]” here?
The coagulation time was 62 min.

And the APTT [2]?
Its APTT is no less than 2 min.

For `CC1CNc2c(cccc2S(=O)(=O)N[C@@H](CCCNC(=N)N)C(=O)N2CC[C@@H](C)C[C@@H]2C(=O)O)C1` (stereo partly shown) [Argatroban], which “presence of thrombus in glass tube by visual observation after washing” value [3] is on record?
The value was “did not confirm the presence of thrombus”.

For “thrombin aptamer that recognizes exosite I and thrombin aptamer that recognizes exosite II: combination of exosite I aptamer (SEQ ID NO. 1) and exosite II aptamer 5′-AGTCCGTGGTAGGGCAGGTTGGGGTGACT-3′ (SEQ ID NO. 3) (chain 1 GGTTGGTGTGGTTGG; listed as DNA, chemistry not given here)”, which “time without confirmed blood coagulation” value (blood coagulation [1]; 5 μM of each aptamer in combination, blood free of the trypsin inhibitor) is on record?
Its value is greater than 3 h.

And the “effect on blood storage / coagulation by thromboelastogram” value (blood coagulation [4])?
Its value is “allow the blood to be stored”.

How did the “thrombus in the thrombus formation chamber by visual observation after washing” value [5] turn out when unfractionated heparin was run?
Its value is “thrombus cannot be found”.

And the “decrease in blood flow discharged from the discharge tube” value ([5]; solutions flown for 10 minutes)?
Its value is “no decrease in blood flow”.

And the “pressure difference between inlet tube and discharge tube pressure gauges” value ([5]; solutions flown for 10 minutes)?
Its value is “no pressure difference”.

And the “pressure rose up to” value ([6]; 1 unit/ml, flow rate 50 μl/min)?
The value was “about 10 kPa”.

And the “time after starting the measurement at which pressure began to rise” value ([6]; 1 unit/ml, flow rate 50 μl/min)?
Its value is 13 min.

B1: ReoPro: ReoPro (LILLY Co., Ltd.) (antibody, chains of the INN, looked up, V domains shown)
VH: EVQLQQSGTVLARPGASVKMSCEASGYTFTNYWMHWVKQRPGQGLEWIGAIYPGNSDTSYIQKFKGKAKLTAVTSTTSVYMELSSLTNEDSAVYYCTLYDGYYVFAYWGQGTLVTVSA
VL: EIVLTQSPVTLSVTPGDSVSLSCRASRDISNNLHWFQQTSHESPRLLIKYASQSMSGIPSRFSGSGSGTDFTLSINSVETEDFGMYFCQQTNSWPYTFGGGTKLEIK
modifications: Fab
Which results are given for B1?
increase in pressure ([6]; 50 μg/ml, measurement for 18 minutes): could not be confirmed; pressure rose up to ([7]; after 25 minutes): about 15 kPa; time after starting the pressure measurement at which pressure began to rise ([7]; flow rate 40 μl/min): 20 min
